Measurements: paper PMC5460289, “Identification of New Shikonin Derivatives as Antitumor Agents Targeting STAT3 SH2 Domain” (Scientific Reports, 2017)

Key:
MDA-MB-231 cells = assay: Mitochondrial transmembrane potential by JC-1 staining; assay type: cell-based, human; conditions: 4 h treatment, control 92.3%
Protocol: Subsequently, the mitochondrial transmembrane potential was monitored using JC-1 staining. […] Red fluorescence represents the mitochondrial aggregate form of JC-1 with high ∆Ψm in normal cells. Green fluorescence represents the monomeric form of JC-1 with low ∆Ψm in apoptotic cells.
Figure 5 Mitochondrial transmembrane potential was analysed in PMM-172-treated MDA-MB-231 cells by JC-1 staining. TEXT PRINTED IN THE PICTURE: no label printed: Q1 1.74% (0 μM); Q2 92.3% (0 μM); Q4 0.011% (0 μM); Q3 5.94% (0 μM); Q1 1.88% (2 μM); Q2 73.3% (2 μM); Q4 0.179% (2 μM); Q3 24.6% (2 μM); Q1 1.88% (4 μM); Q2 64.6% (4 μM); Q4 0.227% (4 μM); Q3 33.3% (4 μM); Q1 0.436% (8 μM); Q2 21.3% (8 μM); Q4 0.016% (8 μM); Q3 78.2% (8 μM) DOUBTS OF THE COPYIST ABOUT THIS PICTURE: The picture prints no label for the substance; the plots are told apart only by concentration (0, 2, 4, 8 μM), and the 0 μM plot is the untreated control. / The quadrant percentages are printed very small, so 3, 5, 6, 8 and 9 cannot be told apart with certainty and all readings are best readings: 0 μM: Q1 1.74%, Q2 92.3%, Q3 5.94%, Q4 0.011%; 2 μM: Q1 1.88%, Q2 73.3%, Q3 24.6%, Q4 0.179%; 4 μM: Q1 1.88%, Q2 64.6%, Q3 33.3%, Q4 0.227%; 8 μM: Q1 0.436%, Q2 21.3%, Q3 78.2%, Q4 0.016% […]

[1] = system: PARP and caspase 3 cleavage in MDA-MB-231 cells; assay: Western blot of PARP and caspase 3 cleavage; assay type: cell-based, human; conditions: MDA-MB-231, 24 h treatment
Protocol: To determine whether PMM-172 induced apoptosis, Annexin V/PI double staining assay was conducted. MDA-MB-231 cells were treated with various concentrations of PMM-172 for 24 h, and the percentage of apoptotic cells was markedly elevated in a dose-dependent manner. Likewise, MDA-MB-231 cells were treated with corresponding doses of Stattic. […] The percentages of cell apoptosis 3.12%, 8.12%, 16.81%, 62.74% corresponded to the concentration of PMM-172 0, 2, 4 and 8 μM, respectively, including both the early and the late apoptotic cells. Clearly, PMM-172 can cause cell apoptosis more effectively than Stattic. Moreover, an extend time-course apoptosis analysis of MDA-MB-231 cells treated with 4 μM PMM-172 was carry out. […] To further assess the pro-apoptotic effect of PMM-172, we evaluated the cleavage of poly (ADP-ribose) polymerase (PARP) and caspase 3 in MDA-MB-231 cells after 24 h treatment with PMM-172. […]
Figure 4 The effect of PMM-172 on the cell apoptosis of MDA-MB-231 cells. […] Apoptosis was analyzed by flow cytometry by using Annexin V/PI double staining. […] (E) PARP and caspase 3 cleavage in MDA-MB-231 cells after treated with various concentrations of PMM-172 for 24 h were detected by using Western blot analysis. The relative expression level was analyzed by Image J software. […]

COc1cc(OC)cc(-c2nnc(SCC(=O)O[C@H](CC=C(C)C)C3=CC(=O)c4c(O)ccc(O)c4C3=O)o2)c1 [PMM-172, (R)-1-(5,8-dihydroxy-1,4-dioxo-1,4-dihydronaphthalen-2-yl)-4-methylpent-3-en-1-yl 2-((5-(3,5-dimethoxyphenyl)-1,3,4-oxadiazol-2-yl)thio)acetate]
JC-1 quadrant Q2 (ratio of cells with high membrane potential) (MDA-MB-231 cells; 4 μM): 64.6% | JC-1 quadrant Q2 (ratio of cells with high membrane potential) (MDA-MB-231 cells; 8 μM): 21.3% | PARP and caspase 3 cleavage [1]: could induce PARP and caspase 3 cleavage
